The test system of one data set is xL3 H. contortus. The data set can be described thus: Motility on WMicrotracker ONE. Type of data set: in vivo. Particulars: 48 h; for reduction of movement rates: 50 µM. The method, then: H. contortus L3 were obtained by culturing feces collected from experimentally infected sheep (located in the facilities of the Instituto de Ganadera de Montaa, Leon, Spain) in aerated and humidified closed containers, which were placed in a climatic chamber at 28 °C for 5 days. Larvae were recovered by immersing the feces in tap water for 5 h to stimulate migration. The suspension was then filtered through a 20 μm sieve. Subsequently, larvae were collected using a Baermann apparatus with a 30 μm mesh overnight at 23 °C. Exsheathment of L3 larvae was performed by incubating them in 0.1% (v/v) sodium hypochlorite for 1 h at room temperature on a rotator, followed by three washes with tap water to remove residual bleach.
The effect of compounds on motility of H. contortus, D. destructor, and H. schachtii was evaluated using the WMicrotracker ONE platform according to previously published protocols. ,
We mostly focused on the three derivatives containing a halogen substitution in the 4-position of the phenyl ring, namely, i-19, i-20, and i-21. An initial experiment was also conducted with a representative compound with an aliphatic chain, namely, i-12, in which we observed only a relatively small effect on the motility of larvae (approximately 30% decrease in motility of nematodes treated with 100 μM of the compound after 48 h in comparison to vehicle-treated worms; Figure S2.7). […] The effect was apparent starting at 3 h and beyond. At 48 h, the latest time point was tested, and the movement rates of nematodes exposed to 50 μM of i-19, i-20, and i-21 were reduced by 76%, 80%, and 82%, respectively.

Data set [1] concerns age unsynchronized Ditylenchus destructor. Kind of data set: Motility on WMicrotracker ONE. Type of data set: in vivo. A digest of the protocol:
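Age-unsynchronized populations of Ditylenchus destructor were maintained following a previously described protocol. Their motility was measured on the WMicrotracker ONE platform using previously published methods. The instrument scores the activity of small animals by counting how often infrared light microbeams passing through the wells of a microtiter plate are interrupted. Activity was recorded before treatment and during exposure to compounds.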

The subject of data set [2] is human keratinocytes (HaCaT). Kind of data set: Resazurin assay, 3-day treatment. Type of data set: cell-based. For orientation: Resazurin is reduced to fluorescent resorufin, in cell work by metabolically active cells.
A further data set deals with H. schachtii. The data set can be described thus: DESI-MS detection of compound in nematodes. Also noted: species or system Heterodera schachtii. The procedure: (§1) For in situ visualization of selected compounds, desorption electrospray ionization mass spectrometry imaging (DESI-MSI) was performed by using a Synapt G2-Si MS instrument coupled to a 2D-DESI source (Waters). The spray solvent (95% MeOH with 0.1% ammonia) was delivered at 2 μL/min and nebulized with […] ultrapure nitrogen on sample slides. The DESI source was optimized as follows: tip-to-surface distance: 1 mm; tip-to-inlet distance: 5 mm; incidence angle: 55°; collection angle: 10°; capillary voltage: 4 kV; cone voltage: […]; mass range: 100–600, with 16 000–17 000 full width at half-maximum (fwhm) mass resolution. Data were acquired in the negative mode using MassLynx software (v4.1, Waters, Milford, MA). Spectra, with a spatial resolution of 30 μm, were acquired every second. All acquired spectra were then recalibrated with the exact mass of the standard compounds and normalized based on root mean square (RMS) intensities. […] DESI-MS/MS was performed on the same sampling area with a 20 eV collision energy scanning of nematodes, and the acquired MS/MS spectra were summarized for the fragmentation ion assignment, and the correct molecular formulas were first calculated using MassLynx software (v4.1) and then identified by their masses acquired from the standard solution. […]

For a further data set, the system named is C. elegans. Kind of data set: DESI-MS detection of compound in nematodes. Also noted: species or system Caenorhabditis elegans. The method, then:
as §1

Data set [3] relates to H. schachtii second-stage juveniles (J2). The data set can be described thus: Nematicidal assay with NaOH agitation. Conditions: 50 µM; 48 h. Type of data set: in vivo, Heterodera schachtii. The text has this: To assess the nematicidal effect of compounds on H. schachtii second-stage juveniles (J2), approximately 50 J2 in sterile double-distilled water were transferred into each well of a flat-bottom 96-well plate and exposed to the test compounds or vehicle alone (DMSO 0.2%).

Setting [4] is: 10 µM group, initial (prior to the treatment).
The mark [5] stands for this setting: 50 µM group, initial (prior to the treatment).
Where [6] appears, read: 100 µM group, initial (prior to the treatment).

Structures are written as SMILES.

Regarding `CCCOc1cccc(-c2ccc3[nH]ccc3c2)c1` [i-12], the “decrease in motility in comparison to vehicle-treated worms” value in the data set with xL3 H. contortus (100 µM) is recorded as “approximately 30%”. The average activity counts in data set [1] (setting [4]) is 220; in data set [1] (10 µM, 48 h) it was 197; in data set [1] (10 µM, 72 h) it was 218; in data set [1] (setting [5]) it was 201; in data set [1] (50 µM, 48 h), 186; in data set [1] (50 µM, 72 h) it was 202. Moreover, the average activity counts in data set [1] (setting [6]) worked out at 235; in data set [1] (100 µM, 48 h), 207; in data set [1] (100 µM, 72 h), 202. Also, the “Average viability (signal intensity relative to control)” value in data set [2] (10 µM) is listed as 1.06 ± 0.14; in data set [2] (20 µM), 1.09 ± 0.13; in data set [2] (40 µM), 1.06 ± 0.09.

Consider `CCCOc1ccc(-c2ccc3[nH]ccc3c2)cc1` [i-13], for which the “DESI-MS signal of the compound in nematodes” value in the data set on H. schachtii and with C. elegans was “able to detect signals” in each case. Also, the average activity counts in data set [1] (setting [4]) was found to be 204; in data set [1] (10 µM, 48 h), 200; in data set [1] (10 µM, 72 h), 207; in data set [1] (setting [5]) it was 221; in data set [1] (50 µM, 48 h), 211; in data set [1] (50 µM, 72 h), 219. The average activity counts was 239 in data set [1] (setting [6]); 211 in data set [1] (100 µM, 48 h); 228 in data set [1] (100 µM, 72 h). The “Average viability (signal intensity relative to control)” value in data set [2] (10 µM) was found to be 0.97 ± 0.01; in data set [2] (20 µM) it was 0.98 ± 0.02; in data set [2] (40 µM) it was 0.91 ± 0.04.

For the molecule `Clc1ccc(-c2ccc3[nH]ccc3c2)cc1` [i-19], the “DESI-MS signal of the compound in nematodes” value in the data set with H. schachtii and in the data set with C. elegans was “able to detect signals” each time. Moreover, the “reduction of movement rates” value in the data set with xL3 H. contortus amounted to 76%. Also, the average activity counts came to 226 in data set [1] (setting [4]); 227 in data set [1] (10 µM, 48 h); 232 in data set [1] (10 µM, 72 h); 239 in data set [1] (setting [5]); 85 in data set [1] (50 µM, 48 h); 67 in data set [1] (50 µM, 72 h). Besides, the average activity counts in data set [1] (setting [6]) turned out to be 233; in data set [1] (100 µM, 48 h), 113; in data set [1] (100 µM, 72 h) it was 88. Further, the “decrease of mean activity counts” value in data set [1] (100 µM, 72 h) was 62%. Besides, the “nematicidal effect after NaOH addition” value in data set [3] is reported as “immobilize worms rather than directly kill them”. Also, the “Average viability (signal intensity relative to control)” value in data set [2] (10 µM) stood at 1.01 ± 0.02; in data set [2] (20 µM), 1.02 ± 0.05; in data set [2] (40 µM) it was 0.86 ± 0.1. Besides, the decrease in viability entry in data set [2] (40 µM) is “approximately 5%”.

`Fc1ccc(-c2ccc3[nH]ccc3c2)cc1` [i-20]: the “reduction of movement rates” value with xL3 H. contortus amounted to 80%. In addition, the average activity counts in data set [1] (setting [4]) is recorded as 215; in data set [1] (10 µM, 48 h), 200; in data set [1] (10 µM, 72 h) it was 187; in data set [1] (setting [5]) it was 223; in data set [1] (50 µM, 48 h) it was 84; in data set [1] (50 µM, 72 h), 64. Moreover, the average activity counts in data set [1] (setting [6]) came out at 226; in data set [1] (100 µM, 48 h), 2; in data set [1] (100 µM, 72 h), 2. For the same molecule, in data set [1] (100 µM, 72 h), the “decrease of mean activity counts” value is on record as 99%. For the same molecule, the “nematicidal effect after NaOH addition” value in data set [3] is recorded as “immobilize worms rather than directly kill them”. In addition, the “Average viability (signal intensity relative to control)” value stood at 0.97 ± 0.01 in data set [2] (10 µM), 0.99 ± 0.02 in data set [2] (20 µM) and 0.94 ± 0.02 in data set [2] (40 µM).

Regarding `FC(F)(F)Oc1ccc(-c2ccc3[nH]ccc3c2)cc1` [i-21], the “reduction of movement rates” value with xL3 H. contortus is reported as 82%. The average activity counts was determined as 227 in data set [1] (setting [4]); 220 in data set [1] (10 µM, 48 h); 183 in data set [1] (10 µM, 72 h); 223 in data set [1] (setting [5]); 172 in data set [1] (50 µM, 48 h); 139 in data set [1] (50 µM, 72 h). The average activity counts in data set [1] (setting [6]) came to 221; in data set [1] (100 µM, 48 h) it was 158; in data set [1] (100 µM, 72 h), 94. The “decrease of mean activity counts” value in data set [1] (100 µM, 72 h) worked out at 57%. Moreover, the “Average viability (signal intensity relative to control)” value amounted to 0.96 ± 0.02 in data set [2] (10 µM), 0.96 ± 0.04 in data set [2] (20 µM) and 0.74 ± 0.11 in data set [2] (40 µM).

The values are drawn from article PMC12766724, “Synthesis, Anthelmintic Activity, and Mechanism of Action of 5‑Aryl‑1H‑indoles” (Journal of Agricultural and Food Chemistry, 2025).
